Reference: patent US20030224940A1, “Alpha-sulfin-and alpha-sulfonamino acid amide derivatives” (priority 2000, published 2003)
Like-named read-outs stand apart in the source and are kept apart here.

Legend:
Phytophthora [1] = test: whole plant or invertebrate; assay type: in vivo; details: in Solanum tuberosum, read-out: inhibit fungal infestation
Plasmopara viticola = details: read-out: inhibit fungal infestation
Procedure: D-1: Action Against Plasmopara viticola (downy mildew) on Vines
5 week old grape seedlings cv. Gutedel are treated with the formulated test compound in a spray chamber. One day after application grape plants are inoculated by spraying a sporangia suspension (4×10^4 sporangia/ml) on the lower leaf side of the test plants. After an incubation period of 6 days at +21° C. and 95% r. h. in a greenhouse the disease incidence is assessed.

Phytophthora [2] = test: whole plant or invertebrate; assay type: in vivo; details: in Solanum lycopersicum, read-out: inhibit fungal infestation

## CCS(=O)(=O)N[C@H](C(=O)NCc1ccc(O)c(OC)c1)C(C)C
other
  melting point: 49 to 50 °C

## CCS(=O)(=O)N[C@H](C(=O)NCc1ccc(OCc2ccccc2)c(OC)c1)C(C)C
other
  melting point: 141 to 152 °C

## CCS(=O)(=O)N[C@H](C(=O)NCc1ccc(OCC#Cc2ccc(Cl)cc2)c(OC)c1)C(C)C [Compound A1.1, (S)-N-{4-[3-(4-Chloro-phenyl)-prop-2-ynyloxy]-3-methoxy-benzyl}-2-ethanesulfonylamino-3-methyl-butyramide]
Phytophthora [1]
  inhibition at 200 ppm: ≥ 80%
Plasmopara viticola
  inhibition at 200 ppm: ≥ 80%
Phytophthora [2]
  inhibition at 200 ppm: ≥ 80%
other
  melting point: 162 to 163 °C
